# Assay results reported in patent US20160000750A1, “COMBINATION OF EGCG OR METHYLATED EGCG AND A PDE INHIBITOR” (KYUSHU UNIVERSITY, NATIONAL UNIVERSITY CORPORATION, priority 2010, published 2016).
# Tested on: human acute myeloid leukemia cell line, HL60
# Assay: Trypan blue cell viability and viable cell count, HL60
# Format: cell-based
# Settings: vardenafil 5 μM, EGCG 5 μM added after 3 hours, 96 hours
# Method: A human multiple myeloma cell line, U266, was subcultured in an RPMI 1640 medium (NISSUI PHARMACEUTICAL Co. LTD., Tokyo) supplemented with 10% fetal calf serum (FCS) (BIOLOGICAL INDUSTRIES) at 37° C. under vapor-saturated 5% CO2 conditions. The cells were cultured in the logarithmic growth phase. A human acute myeloid leukemia cell line, HL60, was subcultured in an RPMI 1640 medium supplemented with 10% fetal calf serum (FCS) at 37° C. under vapor-saturated 5% CO2 conditions. The cells were cultured in the logarithmic growth phase. […]
# The plate was returned to the incubator immediately after the addition of EGCG, followed by culturing for 96 hours. […] After 10 minutes, the number of the cells was counted with a hemocytometer (Becton, Dickinson and Company). Unstained cells were deemed as viable cells, and the cell viability was determined as a ratio of the number of unstained cells in trypan blue staining to the total number of cells. […]
substance,measurement,value
(−)-epigallocatechin-3-O-gallate [EGCG],cell viability (cell-killing activity),any cytotoxicity was not observed
